From US10159653B2, “Methods and compositions for increasing energy expenditure using cinnamaldehyde” (NESTEC S.A., priority 2013, dated 2018)

Legend:
[1] = system: Human subjects; test: Nose temperature after ingestion; assay type: in vivo; settings: fifteen minutes following ingestion
Protocol: The nose temperature of the subjects was analyzed over the fifteen minutes following ingestion of the various compounds.

[2] = system: Human subjects; test: Comparative taste testing; assay type: in vivo; settings: 4.8 ppm capsaicin or 350 ppm cinnamaldehyde
Protocol: Human subjects were administered a composition comprising 4.8 ppm capsaicin or 350 ppm cinnamaldehyde. […] 87.9% of the participants judged capsaicin intense to very intense, compared to only 20.5% for cinnamaldehyde. To achieve a similar effect on fat oxidation of capsaicin and cinnamaldehyde, the dose of capsaicin is about 1.5 times less than the maximum that can be used as a flavor (7 ppm according to Fenaroli's Handbook), and the dose of cinnamaldehyde is about 17.5 times less than the maximum that can be used as a flavor (6191.0 ppm according to Fenaroli's Handbook).

[3] = Ludy et al. 2011; cited from earlier work
[4] = system: Human subjects; test: Energy expenditure after ingestion (indirect calorimetry); assay type: in vivo
Protocol: Human subjects were administered placebo, a cooling flavor, capsaicin or cinnamaldehyde. The energy expenditure was measured over the eighty minutes following ingestion. […] The increased sympathetic activity identified by measuring the facial temperature (increased blood flow on the chin) might explain the increased energy expenditure measured by indirect calorimetry.

[5] = system: Human subjects; test: Postprandial fat oxidation after ingestion; assay type: in vivo
Protocol: The postprandial fat oxidation was measured over the 90 minutes following ingestion of the various compounds.

[6] = system: Human subjects; test: Chin temperature after ingestion (sympathetic nervous system activity); assay type: in vivo
Protocol: The chin temperature of the subjects was measured over the eighty minutes following ingestion of the various compounds. […] The increased sympathetic activity identified by measuring the facial temperature (increased blood flow on the chin) might explain the increased energy expenditure measured by indirect calorimetry.

[7] = biological target: T1, TRPA1 (Mus musculus, UniProt Q8BLA8); test: Pre-clinical study, single dose: gastric emptying and short term food intake; assay type: in vivo; settings: single dose 250 mg/kg bw
T1 construct: endogenous in cells; host or cells: living animals of the pre-clinical study (probably mice)

[8] = system: obese mice; test: Pre-clinical study, chronic ingestion in food; assay type: in vivo; settings: 0.2% in food
Protocol: The findings of the inventors were especially surprising in that a low dose (1.25 mg/kg body weight per day) of cinnamaldehyde at a flavoring range can provide an effect after a single ingestion. In a pre-clinical study by the inventors, the dose of cinnamaldehyde was about 250 mg/kg body weight per day, with chronic ingestion (effect on body weight gain and insulin sensitivity).

[9] = system: TRPA1; settings: read-out: EC50 of TRPA1 activation; cited from earlier work
[10] = biological target: TRPV1 (Homo sapiens, UniProt Q8NER1); settings: cited from earlier work
[11] = biological target: TRPM8 (Homo sapiens, UniProt Q7Z2W7); settings: cited from earlier work
[12] = flavoring level of cinnamaldehyde judged significantly less intense than capsaicin

T1 sequence (Q8BLA8 whole entry): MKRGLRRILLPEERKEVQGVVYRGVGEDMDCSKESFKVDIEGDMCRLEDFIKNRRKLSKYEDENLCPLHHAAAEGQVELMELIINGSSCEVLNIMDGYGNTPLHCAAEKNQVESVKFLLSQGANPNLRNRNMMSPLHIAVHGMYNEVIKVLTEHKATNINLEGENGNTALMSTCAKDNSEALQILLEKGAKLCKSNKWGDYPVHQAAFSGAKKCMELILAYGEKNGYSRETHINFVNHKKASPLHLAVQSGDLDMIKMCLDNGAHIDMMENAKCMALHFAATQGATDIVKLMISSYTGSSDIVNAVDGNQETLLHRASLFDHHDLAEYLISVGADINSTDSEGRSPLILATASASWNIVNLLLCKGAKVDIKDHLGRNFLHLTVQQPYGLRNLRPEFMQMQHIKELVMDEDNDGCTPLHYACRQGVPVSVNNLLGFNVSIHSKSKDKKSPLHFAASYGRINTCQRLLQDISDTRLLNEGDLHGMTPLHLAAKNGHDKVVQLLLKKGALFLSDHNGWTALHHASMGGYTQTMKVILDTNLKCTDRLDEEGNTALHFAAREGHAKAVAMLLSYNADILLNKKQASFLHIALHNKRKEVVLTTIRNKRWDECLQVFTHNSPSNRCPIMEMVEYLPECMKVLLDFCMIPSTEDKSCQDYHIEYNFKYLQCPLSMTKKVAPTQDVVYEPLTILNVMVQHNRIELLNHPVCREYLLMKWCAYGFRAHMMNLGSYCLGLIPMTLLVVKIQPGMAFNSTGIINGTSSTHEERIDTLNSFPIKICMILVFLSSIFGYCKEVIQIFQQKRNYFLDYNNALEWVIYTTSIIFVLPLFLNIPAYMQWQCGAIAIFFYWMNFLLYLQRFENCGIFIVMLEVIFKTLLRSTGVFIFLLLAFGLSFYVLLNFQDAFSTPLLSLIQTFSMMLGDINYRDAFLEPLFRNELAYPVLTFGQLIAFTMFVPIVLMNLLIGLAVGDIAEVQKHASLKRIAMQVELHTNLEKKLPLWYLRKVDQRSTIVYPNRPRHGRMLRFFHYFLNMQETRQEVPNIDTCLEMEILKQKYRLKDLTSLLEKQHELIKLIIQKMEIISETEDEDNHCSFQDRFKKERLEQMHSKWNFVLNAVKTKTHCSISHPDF
Sequence of TRPM8 (Q7Z2W7 whole entry, species assumed): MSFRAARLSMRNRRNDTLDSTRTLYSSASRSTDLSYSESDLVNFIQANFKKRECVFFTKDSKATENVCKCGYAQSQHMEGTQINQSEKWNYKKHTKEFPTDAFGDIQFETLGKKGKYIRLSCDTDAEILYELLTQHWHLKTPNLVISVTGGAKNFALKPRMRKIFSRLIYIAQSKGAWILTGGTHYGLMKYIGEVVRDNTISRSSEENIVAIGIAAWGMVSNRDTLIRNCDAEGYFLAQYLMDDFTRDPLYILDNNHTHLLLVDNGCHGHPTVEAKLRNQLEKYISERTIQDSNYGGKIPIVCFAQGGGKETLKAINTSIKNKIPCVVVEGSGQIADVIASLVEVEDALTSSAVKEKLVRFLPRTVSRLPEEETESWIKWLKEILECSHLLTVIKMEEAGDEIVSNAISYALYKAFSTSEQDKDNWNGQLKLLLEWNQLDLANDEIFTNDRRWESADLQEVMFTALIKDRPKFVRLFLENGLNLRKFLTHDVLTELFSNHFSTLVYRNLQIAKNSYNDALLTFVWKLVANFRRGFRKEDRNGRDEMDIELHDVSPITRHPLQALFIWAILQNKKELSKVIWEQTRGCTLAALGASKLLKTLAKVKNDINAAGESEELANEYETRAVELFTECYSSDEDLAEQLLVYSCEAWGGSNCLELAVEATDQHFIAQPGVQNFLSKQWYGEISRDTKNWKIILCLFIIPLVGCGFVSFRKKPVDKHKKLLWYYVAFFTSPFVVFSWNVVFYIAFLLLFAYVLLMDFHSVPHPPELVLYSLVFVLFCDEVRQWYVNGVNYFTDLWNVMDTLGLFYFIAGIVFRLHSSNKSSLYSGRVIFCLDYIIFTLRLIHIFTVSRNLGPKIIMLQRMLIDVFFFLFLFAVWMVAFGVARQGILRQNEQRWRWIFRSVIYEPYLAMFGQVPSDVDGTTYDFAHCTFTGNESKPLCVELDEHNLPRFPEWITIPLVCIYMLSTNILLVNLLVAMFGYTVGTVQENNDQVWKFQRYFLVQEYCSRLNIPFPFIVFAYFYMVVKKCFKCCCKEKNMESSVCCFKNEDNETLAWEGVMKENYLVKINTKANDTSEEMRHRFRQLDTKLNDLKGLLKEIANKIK
Sequence of TRPV1 (Q8NER1 whole entry, species assumed): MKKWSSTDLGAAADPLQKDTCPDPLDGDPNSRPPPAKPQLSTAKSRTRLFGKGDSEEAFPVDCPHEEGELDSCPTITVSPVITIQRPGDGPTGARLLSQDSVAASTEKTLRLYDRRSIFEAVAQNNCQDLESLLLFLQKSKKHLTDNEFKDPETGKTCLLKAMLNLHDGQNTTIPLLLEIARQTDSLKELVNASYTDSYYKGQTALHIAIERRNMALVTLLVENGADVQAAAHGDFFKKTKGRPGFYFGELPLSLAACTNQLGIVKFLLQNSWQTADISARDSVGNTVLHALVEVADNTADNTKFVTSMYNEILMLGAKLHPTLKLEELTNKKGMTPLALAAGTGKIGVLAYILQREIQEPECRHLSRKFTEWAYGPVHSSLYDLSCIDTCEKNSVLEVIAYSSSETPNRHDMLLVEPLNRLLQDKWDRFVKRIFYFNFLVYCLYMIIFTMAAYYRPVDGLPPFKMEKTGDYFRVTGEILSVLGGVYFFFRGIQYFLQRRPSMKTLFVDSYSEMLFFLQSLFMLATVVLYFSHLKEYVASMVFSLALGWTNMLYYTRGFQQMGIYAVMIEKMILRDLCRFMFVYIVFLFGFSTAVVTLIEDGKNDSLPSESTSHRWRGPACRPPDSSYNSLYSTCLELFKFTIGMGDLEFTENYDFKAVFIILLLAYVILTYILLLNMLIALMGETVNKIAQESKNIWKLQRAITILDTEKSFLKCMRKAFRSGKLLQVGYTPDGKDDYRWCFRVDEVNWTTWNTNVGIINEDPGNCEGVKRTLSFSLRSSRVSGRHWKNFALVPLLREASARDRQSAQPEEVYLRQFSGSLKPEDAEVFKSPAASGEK

Compound | nose temperature [1] | participants who judged the taste intense to very intense [2] [%] | efficient dose for increasing energy expenditure and fat oxidation [3] [mg] | impact on energy expenditure compared to capsaicin [4, 12] | energy expenditure compared to placebo ([4]; human subjects, eighty minutes following ingestion, time course and AUC) | effect on fat oxidation compared to capsaicin [5, 12] | postprandial fat oxidation compared to placebo ([5]; human subjects, 90 minutes following ingestion, time course and AUC) | impact on sympathetic nervous system activity compared to capsaicin [6, 12] | chin temperature relative to baseline ([6]; human subjects, eighty minutes following ingestion) | short term food intake [7] | gastric emptying ([7]; through TRPA1 activation) | lean mass gain [8] | body weight gain ([8]; about 250 mg/kg bw/day) | food intake ([8]; about 250 mg/kg bw/day) | insulin sensitivity ([8]; about 250 mg/kg bw/day) | fat mass gain ([8]; p 0.06) | EC50 [9] [µM] | activation of TRPV1 [10] | activation of TRPM8 [11]
COc1cc(CNC(=O)CCCC/C=C/C(C)C)ccc1O [capsaicin] | increase nose temperatures | 87.9 | ≥ 20 | – | – | – | – | – | – | – | – | – | – | – | – | – | – | – | –
O=CC=Cc1ccccc1 [cinnamaldehyde] | increase nose temperatures | – | – | significantly higher impact | increased | equivalent effect | maintained at higher levels | significantly higher impact | increases chin temperature for a prolonged time | reduced short term food intake | delayed gastric emptying | no effect | reduces body weight gain | without affecting their food intake | improves their insulin sensitivity | tendency to decrease | ~60 | not | not
